One test addresses T1, hT1R2/hT1R3 sweet receptor (Homo sapiens, UniProt Q7RTX0+Q8TE23).
T1 construct: expressed in transfected cells; host or cells: HEK293 derivative stably expressing Gα15, clone S-9
T1 sequence (Q8TE23 20-839): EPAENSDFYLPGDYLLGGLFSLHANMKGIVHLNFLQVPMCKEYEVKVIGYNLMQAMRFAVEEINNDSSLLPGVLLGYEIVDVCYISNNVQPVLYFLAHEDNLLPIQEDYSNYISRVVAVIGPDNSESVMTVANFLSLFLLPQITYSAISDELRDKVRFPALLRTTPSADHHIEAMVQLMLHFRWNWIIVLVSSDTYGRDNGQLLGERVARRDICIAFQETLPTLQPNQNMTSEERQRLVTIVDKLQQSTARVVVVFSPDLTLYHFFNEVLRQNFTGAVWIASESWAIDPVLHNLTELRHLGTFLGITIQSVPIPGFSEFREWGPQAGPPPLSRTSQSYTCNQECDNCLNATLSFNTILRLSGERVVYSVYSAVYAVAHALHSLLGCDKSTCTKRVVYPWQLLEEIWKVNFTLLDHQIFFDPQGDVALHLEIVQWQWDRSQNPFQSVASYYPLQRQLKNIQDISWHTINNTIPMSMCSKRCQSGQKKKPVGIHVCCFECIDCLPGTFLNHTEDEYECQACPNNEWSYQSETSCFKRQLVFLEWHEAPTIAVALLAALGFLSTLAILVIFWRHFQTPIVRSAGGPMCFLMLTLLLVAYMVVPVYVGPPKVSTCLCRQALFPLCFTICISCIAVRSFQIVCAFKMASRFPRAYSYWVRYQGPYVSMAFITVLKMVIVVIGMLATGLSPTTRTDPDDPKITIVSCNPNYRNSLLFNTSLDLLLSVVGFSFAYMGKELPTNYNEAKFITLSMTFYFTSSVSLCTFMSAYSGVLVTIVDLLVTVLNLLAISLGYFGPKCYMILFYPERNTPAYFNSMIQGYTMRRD
T1 sequence (Q7RTX0 21-852): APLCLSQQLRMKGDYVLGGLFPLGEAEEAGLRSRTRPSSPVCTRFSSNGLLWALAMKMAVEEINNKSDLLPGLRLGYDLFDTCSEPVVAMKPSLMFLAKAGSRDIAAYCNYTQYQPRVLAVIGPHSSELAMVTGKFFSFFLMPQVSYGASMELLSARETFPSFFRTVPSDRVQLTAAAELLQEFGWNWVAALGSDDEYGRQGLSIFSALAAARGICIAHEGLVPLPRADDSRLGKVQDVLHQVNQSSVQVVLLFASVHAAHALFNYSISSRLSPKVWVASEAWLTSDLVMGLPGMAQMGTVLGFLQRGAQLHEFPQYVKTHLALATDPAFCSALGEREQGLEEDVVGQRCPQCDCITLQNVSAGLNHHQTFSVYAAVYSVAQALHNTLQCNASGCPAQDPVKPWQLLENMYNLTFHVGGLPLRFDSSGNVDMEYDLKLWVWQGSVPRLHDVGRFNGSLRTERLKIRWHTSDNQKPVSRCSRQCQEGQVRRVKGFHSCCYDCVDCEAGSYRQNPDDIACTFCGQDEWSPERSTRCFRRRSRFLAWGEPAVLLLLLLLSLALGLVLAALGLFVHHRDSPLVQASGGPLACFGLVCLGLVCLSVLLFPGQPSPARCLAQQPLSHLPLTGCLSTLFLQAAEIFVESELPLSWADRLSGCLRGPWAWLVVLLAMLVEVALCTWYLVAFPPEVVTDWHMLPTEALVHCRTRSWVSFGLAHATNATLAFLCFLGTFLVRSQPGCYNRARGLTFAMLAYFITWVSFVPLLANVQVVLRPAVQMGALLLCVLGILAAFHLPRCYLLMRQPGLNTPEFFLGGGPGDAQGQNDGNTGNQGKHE
Put plainly: In vitro hT1R2/hT1R3 sweet taste receptor activation assay (FLIPR, dose response). It counts as cell-based. Conditions: Table E, Sweet Enhancer Amides; read-out: Sweet EC50. The essentials: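 Dose-response at 10 concentrations (60 nM–30 µM, duplicates) measured as Fluo-3AM calcium fluorescence on FLIPR in hT1R2/hT1R3 S-9 cells, in D-PBS at room temperature. Responses scaled to 400 mM D-fructose. EC50s from regression with all curve parameters floating.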
Consider `COc1ccc(NC(=O)c2cc(Cl)c(OC)c(Cl)c2)cc1` [Example E93, 3,5-dicbloro-4-methoxy-N-(4-methoxyphenyl)benzamide], for which the EC50 is 3240 nM. `COc1cccc(C(=O)NC2CCCc3c(OC)cccc32)c1O` (centres unmarked) [Example E121, 2-hydroxy-3-methoxy-N-(5-methoxy-1,2,3,4-tetrahydronaphthalen-1-yl)benzamide]: the EC50 came to 1610 nM. Turning to `CCC(COC)NC(=O)c1ccc(C)cc1C` (centres unmarked) [Example E42, N-(1-methoxybutan-2-yl)-2,4-dimethylbenzamide], the EC50 came out at 1060 nM. Regarding `C/C=C/c1c(F)c(F)c(C(=O)N[C@@H](C)C(C)C)c(F)c1F` [Example E129, (S,E)-2,3,5,6-tetrafluoro-N-(3-methylbutan-2-yl)-4-(prop-1-enyl)benzamide], the EC50 amounted to 410 nM.

With `CC(C)[C@H](C)NC(=O)c1c(F)c(F)c(-c2ccccc2)c(F)c1F` [Example E131, (S)-2,3,5,6-tetrafluoro-N-(3-methylbutan-2-yl)-4-phenyl benzamide], the EC50 was found to be 440 nM.

In the case of `Cc1c(F)cccc1C(=O)N[C@H]1CCCc2ccccc21` [Example E19, (S)-3-fluoro-2-methyl-N-(1,2,3,4-tetrahydronaphthalen-1-yl)benzamide], the EC50 was determined as 3570 nM.

`Cc1ccc2ccccc2c1C(=O)NC1CCCCC1C` (centres unmarked) [Example E52, 2-methyl-N-(2-methylcyclohexyl)-1-naphthamide]: the EC50 is 1520 nM. On to `COc1cccc2c1CCCC2NC(=O)c1cccc(-c2ccccc2)c1O` (centres unmarked) [Example E123, 2-hydroxy-N-(5-methoxy-1,2,3,4-tetrahydronaphthalen-1-yl)-3-phenylbenzamide], for which the EC50 amounted to 2560 nM. Consider `COc1cccc2c1CCCC2NC(=O)c1cccc(O)c1O` (centres unmarked) [Example E10, 2,3-dihydroxy-N-(5-methaxy-1,2,3,4-tetrahydronaphthalen-1-yl)benzamide], for which the EC50 came out at 2440 nM. Same read-out and setting: the same measure for `O=C(N[C@@H]1CCCc2ccccc21)c1cccc(Cl)c1O` [Example E2, (R)-3-chloro-2-hydroxy-N-(1,2,3,4-tetrahydronaphthalen-1-yl)benzamide]: 650 nM; for `CCc1cccc(NC(=O)c2c(C)cccc2OC)c1` [Example E98, N-(3-ethylphenyl)-2-methoxy-6-methylbenzamide]: 4630 nM; for `COc1c(Cl)cc(C(=O)Nc2ccccc2C)cc1Cl` [Example E88, 3,5-dichloro-4-methoxy-N-o-tolylbenzamide]: 1840 nM.

`Cc1cc(C)c(C(=O)NC2CCCCC2C)c(C)c1` (centres unmarked) [Example E36, 2,4,6-trunethyl-N-(2-methylcyclohexyl)benzamide]: the EC50 was determined as 720 nM. Regarding `Cc1ccc(NC(=O)c2ccc(Cl)c(C)c2)c(C)c1` [Example E92, 4-chloro-N-(2,4-dimethylphenyl)-3-methylbenzamide], the EC50 was 2740 nM. For the compound `Cc1c(NC(=O)N2Cc3ccccc3C2)cccc1[N+](=O)[O-]` [Example E102, N-(2-methyl-3-nitrophenyl)isoindoline-2-carboxamide], the EC50 is 2010 nM.

`COc1c(Cl)cc(C(=O)Nc2ccc(C)cc2C)cc1Cl` [Example E86, 3,5-dichloro-N-(2,4-dimethylphenyl)-4-methoxybenzamide]: the EC50 amounted to 1480 nM. As to `Cc1c(F)c(F)c(C(=O)NC(C)C(C)C)c(F)c1F` (centres unmarked) [Example E27, 2,3,5,6-tetrafluoro-4-methyl-N-(3-methylbutan-2-yl)benzamide], the EC50 came to 140 nM. As to `N#Cc1ccccc1NC(=O)N1CCc2ccccc2C1` [Example E110, N-(2-cyanophenyl)-3,4-dihydroisoquinoline-2(1H)-carboxamide], the EC50 was found to be 2500 nM. On to `CC12CCC(C1)C(C)(C)C2NC(=O)c1cccs1` (centres unmarked) [Example E73, Thiophene-2-carboxylic acid (1,3,3-trimethyl-bicyclo[2.2.1]hept-2-yl)-amide], for which the EC50 is 3360 nM.

For the compound `Cc1ccc(C(=O)NC2CCC(C)CC2)c(O)c1` (centres unmarked) [Example E67, 2-hydroxy-4-methyl-N-(4-methylcyclohexyl)benzamide], the EC50 stood at 2980 nM. Consider `CC1CCCCC1NC(=O)c1ccnc(Cl)c1` (centres unmarked) [Example E56, 2-chloro-N-(2-methylcyclohexyl)isonicotinamide], for which the EC50 stood at 1920 nM. Regarding `Cc1c(F)c(F)c(C(=O)NCC(C)C)c(F)c1F` [Example E69, 2,3,5,6-tetrafluoro-N-isobutyl-4-methylbenzamide], the EC50 came out at 3190 nM.

The test is the same for the next values; noted with them: read-out: EC50 for activation of a hT1R2/hT1R3 sweet receptor expressed in an HEK293 cell line.
Regarding `Cc1cccc2c1CCC[C@H]2NC(=O)c1conc1C` [Example 182, (R)-3-Methyl-N-(5-methyl-1,2,3,4-tetrahydronaphthalen-1-yl)isoxazole-4-carboxamide], the EC50 came out at 2800 nM. For `O=C(N[C@@H]1CCCc2ccccc21)c1ccoc1` [Example 170, (R)-N-(1,2,3,4-tetrahydronaphthalen-1-yl)furan-3-carboxamide], the EC50 stood at 6600 nM. Same read-out and setting: the same measure for `Cc1cccc(C)c1C(=O)NC1CCCCC1C` (centres unmarked) [Example 168, 2,6-dimethyl-N-(2-methylcyclohexyl)benzamide]: 1880 nM. `CCOc1cccc2c1CCCC2NC(=O)c1conc1C` (centres unmarked) [Example 181]: the EC50 was 4500 nM. Turning to `CCc1nocc1C(=O)N[C@@H]1CCCc2c(OC)cccc21` [Example 187, (R)-3-Ethyl-N-(5-methoxy-1,2,3,4-tetrahydronaphthalen-1-yl)isoxazole-4-carboxamide], the EC50 was determined as 400 nM. The same measure, in the same setting: the same measure for `CSc1cc(C)c(C(=O)N[C@H](C)C(C)(C)C)c(C)c1` [Example 200, (R)-N-(3,3-dimethylbutan-2-yl)-2,6-dimethyl-4-(methylthio)benzamide]: 1020 nM.

On to `Cc1cccc2c1CN(C(=O)Nc1c(F)cc(Br)cc1F)C2` [Example 193, N-(4-bromo-2,6-difluorophenyl)-4-methylisoindoline-2-carboxamide], for which the EC50 stood at 20 nM. With `COc1ccc2c(c1)[C@H](NC(=O)c1cccc(Cl)c1O)CCC2` [Example 184, (R)-3-Chloro-2-hydroxy-N-(7-methoxy-1,2,3,4-tetrahydronaphthalen-1-yl)benzamide], the EC50 came to 260 nM. For the compound `CCCc1c(F)c(F)c(C(=O)N[C@@H](C)C(C)C)c(F)c1F` [Example 192, (S)-2,3,5,6-tetrafluoro-N-(3-methylbutan-2-yl)-4-propylbenzamide], the EC50 came to 140 nM. As for `COc1ccc(NC(=O)N2Cc3ccccc3C2)c(C)c1` [Example 173, N-(4-methoxy-2-methylphenyl)isoindoline-2-carboxamide], the EC50 was 4500 nM.
